Measurements taken from patent US8481494B2, “Compounds for the treatment of diseases related to protein misfolding” (priority 2009, dated 2013).

Target: T1, Aβ(1-42) (Homo sapiens, UniProt P05067)
T1 construct: Aβ(1-42)-peptide (Bachem, Bubendorf, Germany) was prepared in HFIP; purchased Bachem, Bubendorf
Experiment: ThT kinetics of Aβ aggregation
Type: biochemical
Details: in words
Procedure: The influence of the new β-sheet ligands, based on the aminopyrazole-trimer, on the Aβ self-assembly process was first studied kinetically. Reference curves were obtained independently for both Aβ (1-40) and Aβ (1-42). In a typical experiment, one third (⅓) equivalent of thioflavine T was added to a solution of monomeric Aβ in PBS buffer, prepared in HFIP. The increase in ThT fluorescence was monitored over time, as a measure of the total amount of accumulating aggregates. […] Both peptides reached a plateau after ˜3 days, which was set as standard time period for all consecutive aggregation assays.
Care was taken to eliminate fluorescence changes induced by any other events than the aggregation process; thus each ligand was separately shown to be non-fluorescent and not to alter Tht fluorescence in mixtures. Controls with pure Aβ were identical in peptide concentration as well as buffer and solvent composition. […] Aβ (1-42): Much more impressive is the inhibitory influence of the trimeric ligands on the aggregation kinetics of the full-length Aβ (1-42). […]
Then, a mixture of 9.5 μL ThT (62.7 μM stock solution), 6 μL PBS and 38.1 μL water (bidest.) was pipetted. […] Sixty μL of aggregation mixtures were pipetted in a 384-well plate and the fluorescence intensity (exc. at 446 nm, em. at 490 nm) was measured every hour at 37° C. […]

T1 sequence (P05067 672-713 limits assumed): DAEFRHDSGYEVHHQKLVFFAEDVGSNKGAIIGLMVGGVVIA

## COC(=O)C(CCCCN)NC(=O)c1cc(NC(=O)c2cc(NC(=O)c3cc([N+](=O)[O-])n[nH]3)n[nH]2)n[nH]1.O=C(O)C(F)(F)F (stereo not shown) [Trimer-Lys-OMe]
  effect on Aβ aggregation kinetics: accelerates Aβ aggregation
